Patent US6737383B1, “Herbicidal oxadiazolidines” (priority 1999, dated 2004)

Columns and labels:
[1] = system: bedstraw; experiment: Test B pre/postemergence bedstraw; assay type: in vivo, Galium aparine
Summary of the method: (§1)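 Herbicidal effect was estimated by eye on a ten-point control scale after plants spent twelve to sixteen days in a greenhouse following soil or foliar treatment. Foliar sprays targeted plants at one to four leaves; all doses were formulated in a non-phytotoxic solvent with surfactant.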

[2] = system: blackgrass; experiment: Test B pre/postemergence blackgrass; assay type: in vivo, Alopecurus myosuroides; details: for Blackgrass plant response rating: scale of 0 to 10 where 0 is no effect and 10 is complete control
Summary of the method: as §1

[3] = system: surinam grass; experiment: Test B pre/postemergence surinam grass; assay type: in vivo, Brachiaria decumbens; details: for B. signalgrass plant response rating: scale of 0 to 10 where 0 is no effect and 10 is complete control
Summary of the method: as §1

[4] = system: corn; experiment: Test B pre/postemergence corn; assay type: in vivo, Zea mays; details: for Corn plant response rating: scale of 0 to 10 where 0 is no effect and 10 is complete control
Summary of the method: as §1

[5] = system: crabgrass; experiment: Test B pre/postemergence crabgrass; assay type: in vivo, Digitaria sanguinalis; details: for Crabgrass plant response rating: scale of 0 to 10 where 0 is no effect and 10 is complete control
Summary of the method: as §1

[6] = system: giant foxtail; experiment: Test B pre/postemergence giant foxtail; assay type: in vivo, Setaria faberii; details: for Giant foxtail plant response rating: scale of 0 to 10 where 0 is no effect and 10 is complete control
Summary of the method: as §1

[7] = system: morningglory; experiment: Test B pre/postemergence morningglory; assay type: in vivo, Ipomoea hederacea; details: for Morningglory plant response rating: scale of 0 to 10 where 0 is no effect and 10 is complete control
Summary of the method: as §1

[8] = system: rape; experiment: Test B pre/postemergence rape; assay type: in vivo, Brassica napus; details: for Rape plant response rating: scale of 0 to 10 where 0 is no effect and 10 is complete control
Summary of the method: as §1

[9] = system: soybean; experiment: Test B pre/postemergence soybean; assay type: in vivo, Glycine max; details: for Soybean plant response rating: scale of 0 to 10 where 0 is no effect and 10 is complete control
Summary of the method: as §1

[10] = system: velvetleaf; experiment: Test B pre/postemergence velvetleaf; assay type: in vivo, Abutilon theophrasti; details: for Velvetleaf plant response rating: scale of 0 to 10 where 0 is no effect and 10 is complete control
Summary of the method: as §1

[11] = system: wheat; experiment: Test B pre/postemergence wheat; assay type: in vivo, Triticum aestivum; details: for Wheat plant response rating: scale of 0 to 10 where 0 is no effect and 10 is complete control
Summary of the method: as §1

[12] = system: wild oat; experiment: Test B pre/postemergence wild oat; assay type: in vivo, Avena fatua; details: for Wild oats plant response rating: scale of 0 to 10 where 0 is no effect and 10 is complete control
Summary of the method: as §1

[13] = system: purple nutsedge; experiment: Test B pre/postemergence purple nutsedge; assay type: in vivo, Cyperus rotundus; details: for Nutsedge plant response rating: scale of 0 to 10 where 0 is no effect and 10 is complete control
Summary of the method: as §1

[14] = system: rice; experiment: Test B flood test rice; assay type: in vivo, Oryza sativa
Summary of the method: (§2)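 Each value is a visual injury score relative to controls, with 10 meaning complete control and 0 no effect. Evaluation took place twelve to sixteen days after the 2-leaf-stage plants were treated and kept in the greenhouse.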

[15] = system: smallflower flatsedge; experiment: Test B flood test smallflower flatsedge; assay type: in vivo, Cyperus difformis
Summary of the method: as §2

[16] = system: duck salad; experiment: Test B flood test duck salad; assay type: in vivo, Heteranthera limosa
Summary of the method: as §2

[17] = Postemergence, Rate 125 g/ha, scale 0 to 10, 0 is no effect, 10 is complete control
[18] = Postemergence, Rate 250 g/ha, scale 0 to 10, 0 is no effect, 10 is complete control
[19] = Preemergence, Rate 62 g/ha, scale 0 to 10 (0 no effect, 10 complete control)
[20] = Rate 500 g/ha, Postemergence, scale 0 to 10, 0 no effect, 10 complete control
[21] = Rate 62 g/ha, flood test species, Pre-emergence, visual evaluation after twelve to sixteen days
[22] = Rate 125 g/ha, under heading Pre-emergence, flood test species, visual evaluation after twelve to sixteen days
[23] = Rate 250 g/ha, Pre-emergence, flood-test species, scale 0 to 10, 0 is no effect, 10 is complete control
[24] = Rate 500 g/ha, Pre-emergence, flood test species, scale 0 to 10 (0 no effect, 10 complete control)

CC(C)N(C(=O)n1oc(=O)n(N2C(C)CCCC2C)c1=O)c1ccc(F)cc1F (stereo not shown) [Compound 383]
Plant response rating, Bedstraw [1, 17]: 0
Plant response rating, Bedstraw [1, 18]: 0
Plant response rating, Bedstraw [1, 19]: 0
Plant response rating, Bedstraw [1, 20]: 0
Plant response rating, Blackgrass [2, 17]: 0
Plant response rating, Blackgrass [2, 18]: 2
Plant response rating, Blackgrass [2, 19]: 0
Blackgrass plant response rating (0 to 10 scale) ([2]; Preemergence, Rate 125 g/ha): 0
Blackgrass plant response rating ([2]; Preemergence, Rate 250 g/ha): 2
Blackgrass plant response rating ([2]; Preemergence, Rate 500 g/ha): 7
Blackgrass plant response rating ([2]; Rate 62 g/ha, Postemergence): 0
Plant response rating, Blackgrass [2, 20]: 8
Plant response rating, B. signalgrass [3, 17]: 0
Plant response rating, B. signalgrass [3, 18]: 0
Plant response rating, B. signalgrass [3, 19]: 0
B. signalgrass plant response rating (0 to 10 scale, 0 is no effect, 10 is complete control) ([3]; Preemergence, Rate 125 g/ha): 0
B. signalgrass plant response rating ([3]; Preemergence, Rate 250 g/ha): 0
B. signalgrass plant response rating ([3]; Preemergence, Rate 500 g/ha): 6
B. signalgrass plant response rating ([3]; Rate 62 g/ha, Postemergence): 0
Plant response rating, B. signalgrass [3, 20]: 0
Plant response rating, Corn [4, 17]: 0
Plant response rating, Corn [4, 18]: 0
Plant response rating, Corn [4, 19]: 0
Corn plant response rating (0 to 10 scale) ([4]; Preemergence, Rate 125 g/ha): 0
Corn plant response rating ([4]; Preemergence, Rate 250 g/ha): 0
Corn plant response rating ([4]; Preemergence, Rate 500 g/ha): 0
Corn plant response rating ([4]; Rate 62 g/ha, Postemergence): 0
Plant response rating, Corn [4, 20]: 0
Plant response rating, Crabgrass [5, 17]: 1
Plant response rating, Crabgrass [5, 18]: 4
Plant response rating, Crabgrass [5, 19]: 6
Crabgrass plant response rating (0 to 10 scale) ([5]; Preemergence, Rate 125 g/ha): 8
Crabgrass plant response rating ([5]; Preemergence, Rate 250 g/ha): 9
Crabgrass plant response rating ([5]; Preemergence, Rate 500 g/ha): 10
Crabgrass plant response rating ([5]; Rate 62 g/ha, Postemergence): 0
Plant response rating, Crabgrass [5, 20]: 4
Plant response rating, Giant foxtail [6, 17]: 0
Plant response rating, Giant foxtail [6, 18]: 6
Plant response rating, Giant foxtail [6, 19]: 0
Giant foxtail plant response rating (0 to 10 scale) ([6]; Preemergence, Rate 125 g/ha): 7
Giant foxtail plant response rating ([6]; Preemergence, Rate 250 g/ha): 10
Giant foxtail plant response rating ([6]; Preemergence, Rate 500 g/ha): 10
Giant foxtail plant response rating ([6]; Rate 62 g/ha, Postemergence): 0
Plant response rating, Giant foxtail [6, 20]: 6
Plant response rating, Morningglory [7, 17]: 0
Plant response rating, Morningglory [7, 18]: 0
Plant response rating, Morningglory [7, 19]: 0
Morningglory plant response rating (0 to 10 scale) ([7]; Preemergence, Rate 125 g/ha): 0
Morningglory plant response rating ([7]; Preemergence, Rate 250 g/ha): 0
Morningglory plant response rating ([7]; Preemergence, Rate 500 g/ha): 0
Morningglory plant response rating ([7]; Rate 62 g/ha, Postemergence): 0
Plant response rating, Morningglory [7, 20]: 0
Plant response rating, Rape [8, 17]: 0
Plant response rating, Rape [8, 18]: 0
Plant response rating, Rape [8, 19]: 0
Rape plant response rating (0 to 10 scale) ([8]; Preemergence, Rate 125 g/ha): 0
Rape plant response rating ([8]; Preemergence, Rate 250 g/ha): 0
Rape plant response rating ([8]; Preemergence, Rate 500 g/ha): 0
Rape plant response rating ([8]; Rate 62 g/ha, Postemergence): 0
Plant response rating, Rape [8, 20]: 0
Plant response rating, Soybean [9, 17]: 3
Plant response rating, Soybean [9, 18]: 3
Plant response rating, Soybean [9, 19]: 0
Soybean plant response rating (0 to 10 scale) ([9]; Preemergence, Rate 125 g/ha): 0
Soybean plant response rating ([9]; Preemergence, Rate 250 g/ha): 0
Soybean plant response rating ([9]; Preemergence, Rate 500 g/ha): 0
Soybean plant response rating ([9]; Rate 62 g/ha, Postemergence): 2
Plant response rating, Soybean [9, 20]: 5
Plant response rating, Velvetleaf [10, 17]: 0
Plant response rating, Velvetleaf [10, 18]: 0
Plant response rating, Velvetleaf [10, 19]: 0
Velvetleaf plant response rating (0 to 10 scale) ([10]; Preemergence, Rate 125 g/ha): 0
Velvetleaf plant response rating ([10]; Preemergence, Rate 250 g/ha): 0
Velvetleaf plant response rating ([10]; Preemergence, Rate 500 g/ha): 0
Velvetleaf plant response rating ([10]; Rate 62 g/ha, Postemergence): 0
Plant response rating, Velvetleaf [10, 20]: 0
Plant response rating, Wheat [11, 17]: 0
Plant response rating, Wheat [11, 18]: 0
Plant response rating, Wheat [11, 19]: 0
Wheat plant response rating (0 to 10 scale) ([11]; Preemergence, Rate 125 g/ha): 0
Wheat plant response rating ([11]; Preemergence, Rate 250 g/ha): 0
Wheat plant response rating ([11]; Preemergence, Rate 500 g/ha): 0
Wheat plant response rating ([11]; Rate 62 g/ha, Postemergence): 0
Plant response rating, Wheat [11, 20]: 0
Plant response rating, Wild oats [12, 17]: 0
Plant response rating, Wild oats [12, 18]: 0
Plant response rating, Wild oats [12, 19]: 0
Wild oats plant response rating (0 to 10 scale) ([12]; Preemergence, Rate 125 g/ha): 0
Wild oats plant response rating ([12]; Preemergence, Rate 250 g/ha): 0
Wild oats plant response rating ([12]; Preemergence, Rate 500 g/ha): 0
Wild oats plant response rating ([12]; Rate 62 g/ha, Postemergence): 0
Plant response rating, Wild oats [12, 20]: 0
Plant response rating, Nutsedge [13, 17]: 0
Plant response rating, Nutsedge [13, 18]: 0
Plant response rating, Nutsedge [13, 19]: 0
Nutsedge plant response rating (0 to 10 scale) ([13]; Preemergence, Rate 125 g/ha): 0
Nutsedge plant response rating ([13]; Preemergence, Rate 250 g/ha): 0
Nutsedge plant response rating ([13]; Preemergence, Rate 500 g/ha): 0
Nutsedge plant response rating ([13]; Rate 62 g/ha, Postemergence): 0
Plant response rating, Nutsedge [13, 20]: 0
Plant response rating, Rice (0 to 10 scale, 0 is no effect, 10 is complete control) [14, 21]: 0
Rice plant response rating (0 to 10 scale, 0 is no effect, 10 is complete control) [14, 22]: 0
Rice plant response rating [14, 23]: 0
Rice plant response rating [14, 24]: 0
Plant response rating, S. Flatsedge (0 to 10 scale, 0 is no effect, 10 is complete control) [15, 21]: 0
S. Flatsedge plant response rating (0 to 10 scale, 0 is no effect, 10 is complete control) [15, 22]: 0
S. Flatsedge plant response rating [15, 23]: 0
S. Flatsedge plant response rating [15, 24]: 0
Plant response rating, Ducksalad (0 to 10 scale, 0 is no effect, 10 is complete control) [16, 21]: 0
Ducksalad plant response rating (0 to 10 scale, 0 is no effect, 10 is complete control) [16, 22]: 0
Ducksalad plant response rating [16, 23]: 0
Ducksalad plant response rating [16, 24]: 0
